Results reported in patent publication EP4527906A1, “OXIDATION RESISTANT COMPOSITIONS OF DINAHYDROHEXITOLS CONTAINING BENZOPHENONE OR ITS DERIVATIVES” (ROQUETTE FRERES, priority 2023, dated 2025).

Key:
Type in all cases: physicochemical
[1] = Thermal treatment test: yellow coloration index after heating; details: for Yellow coloration index After-Before: difference after minus before thermal test, 100 ppm antioxidant; for Yellow coloration index after thermal test: isosorbide solution with 100 ppm antioxidant, 245°C for 40 minutes under nitrogen
Protocol: (§1) The yellow coloration index, expressed in YID units, was measured using a Colorflex EZ from Hunterlab according to ASTM E313. The spectrophotometer is a sealed optics, 256-elements diode array, having a 400-700 nm spectral range and a high-resolution concave holographic grating. 55 grams of composition are placed at 65°C, in a 64 mm diameter cylindric cell including a ring and white disk cap. The coloration of the composition was measured as a liquid at 65°C.
(§2) The method hereafter is described for isosorbide as the chemical compound having at least one heterocycle, and is also applicable to any chemical compound having at least one heterocycle.
The thermal stability of compositions of isosorbide, was studied according to the following protocol: 70 g of a 80 wt% solution of isosorbide in water was placed in a three-necked round flask and inerted with high purity nitrogen (purity >99.9%) during 10 minutes at a flowrate of around 2000 mL/min. The product was then heated at 245°C using an oil bath for 40 minutes under a 500 mL/min nitrogen flowrate. Then the product was cooled down to 80°C under the same nitrogen flowrate and yellow coloration measurement (YID value) was measured immediately.
Coloration before and after "thermal treatment" as well as their difference is related to the product thermal stability, i.e. to the sensitivity of the product to oxidation.

[2] = Yellow coloration index measurement (ASTM E313), before thermal treatment; details: isosorbide solution with 100 ppm antioxidant, measured as a liquid at 65°C
Protocol: as §1

[3] = PetroOxy test: induction time (resistance to oxidation)
Source text: The resistance of compositions according to the invention to oxidation may indeed be characterized by this measurement called the "PetroOxy test" which consists in measuring over time the pressure inside a cell loaded with a sample of composition exposed to an initial pressure of dioxygen and a constant temperature. The protocol of this test is described below after.
as §2
3 grams of a purified 50 wt% dry matter isosorbide solution in distilled water with or without the addition of antioxidant are weighed precisely in a glass cup and then placed in the hermetic enclosure of the measuring device "PetroOxy" model 13-3002 from Petrotest, now Anton Paar GmbH. The air present in the cell is purged 3 times at room temperature with pure oxygen via a pressurized cylinder (Alphagas, purity >99.5%). The temperature and working pressure of pure oxygen is then set at 120°C and 700 kPa (7 bars) of oxygen. The pressure is continuously monitored during the experiment. The decrease in pressure in the test chamber is due to oxygen consumption during oxidation reactions of the sample studied. The variation in relative pressure during the experiment makes it possible to determine the time after which the sample begins its degradation by oxidation, which is called induction time, also referred as "OIT", under the test conditions.
The induction time of the sample is determined as follows:
The relative pressure of oxygen consumption is given by the relation (Pmax -Pt)/Pmax. Pmax is the maximum pressure attained by the system during the measurement, corresponding to the maximum pressure at the beginning of time, and Pt is the pressure as a function of time when oxygen is consumed. The induction time of the sample is given by the inflection point of the oxygen consumption curve, i.e. the intersection of the two linear domains as shown on figure Fig.1.
The longer the induction time, the greater the oxidation resistance of the sample. To calculate precisely this parameter, a calculation method by linear regression between the two-line segments before and after the inflection point is performed.

[4] = isosorbide aqueous solution with 100 ppm antioxidant, 120°C and 7 bars of oxygen
[5] = listed as 4,4'-dihydroxy-benzophenone

Structure (SMILES) | Yellow coloration index After-Before [1] | Yellow coloration index after thermal test [1] | Yellow coloration index before thermal test [2] | Yellow coloration index after thermal test ([1]; listed as 2-hydroxy-4-methoxy-benzophenone) | Induction time [3, 4] | Induction time (hours) ([3]; isosorbide aqueous solution with 100 ppm antioxidant, 120°C and 7 bars of oxygen, listed as 2-hydroxy-4-methoxy benzophenone) | Yellow coloration index after thermal test [1, 5] | Yellow coloration index before thermal test [2, 5] | Yellow coloration index after thermal test ([1]; listed as benzophenone) | % versus no antioxidant ([3]; change of induction time versus isosorbide solution without antioxidant (3.5 h), 100 ppm antioxidant)
CCCOC(=O)c1cc(O)c(O)c(O)c1 [Sample 3, Propyl gallate, reference compound] | 5.2 YID | 14.3 YID | 9.1 YID |  |  |  |  |  |  | 
O=C(c1ccccc1)c1ccccc1 [Sample 2.1, Benzophenone] | 6.4 YID | 7.7 YID | 1.3 YID |  | 3.8 h |  |  |  | lower than 10 YID | about 9%
O=C(c1ccc(O)cc1)c1ccc(O)cc1 [Sample 2.2, 4,4'-dihydroxy-benzophenone] | 5.1 YID | 9.3 YID | 4.2 YID |  | 3.9 h |  | lower than 10 YID | lower than 10 YID |  | 

Further lines, with some results ahead:

Yellow coloration index After-Before [1] | Yellow coloration index after thermal test [1] | Yellow coloration index before thermal test [2] | Yellow coloration index after thermal test ([1]; listed as 2-hydroxy-4-methoxy-benzophenone) | Induction time [3, 4] | Induction time (hours) ([3]; isosorbide aqueous solution with 100 ppm antioxidant, 120°C and 7 bars of oxygen, listed as 2-hydroxy-4-methoxy benzophenone) | Yellow coloration index after thermal test [1, 5] | Yellow coloration index before thermal test [2, 5] | Structure (SMILES) | Yellow coloration index after thermal test ([1]; listed as benzophenone) | % versus no antioxidant ([3]; change of induction time versus isosorbide solution without antioxidant (3.5 h), 100 ppm antioxidant)
3.9 YID | 6.1 YID | 2.2 YID | below 7 YID | 4.6 h | around 4,6 hours |  |  | COc1ccc(C(=O)c2ccccc2)c(O)c1 [Sample 2.3, 2-hydroxy-4-methoxybenzophenone] |  | 
37 YID | 49.3 YID | 12.3 YID |  | 5.2 h |  |  |  | COc1ccc(C(=O)c2ccccc2O)c(O)c1 [Sample 2.4, 2,2'-dihydroxy-4-methoxybenzophenone] |  | 
